Here are results for ten compounds from ChEMBL document CHEMBL1201862, “PubChem BioAssay data set” (2004).

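Results reflect a 48-hour exposure of cells in 96-well plates to compound at five concentrations. GI50 is the concentration that inhibits growth by half.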 Calls of active or inactive are those of the source. No stated cut-off is given here; in the data, active = GI50 up to about 1.1 µM and inactive = higher. Non-standard residues stand in square brackets, D forms with d. Residues, ends and D or L forms follow the SMILES beside them. *: point of attachment. Bn2Val = CC(C)[C@@H](C(=O)*)N(Cc1ccccc1)Cc1ccccc1; NH(4-Cl-benzyl) = Clc1ccc(CN*)cc1; NMeV = CN[C@H](C(=O)O)C(C)C; dNMeA = CN[C@H](C)C(=O)O Where only a bound is given, the exact number is not on record here.

Common to all, as to experiment: NCI-60 cell line screen, 48 h
For test [1], the system named is SN12C.
Test [2] deals with OVCAR-5.
Test [3] concerns NCI-H23.
Test [4] concerns CAKI-1.
For test [5], the system named is CCRF-CEM.
The subject of test [6] is U-251.
For test [7], the system named is SR.
The subject of test [8] is HCC 2998.
Test [9] has as its system SW-620.
Test [10] relates to OVCAR-8.
Test [11] has as its system SF-295.
Test [12] relates to LOX IMVI.
Test [13] relates to SK-MEL-28.
Test [14] concerns 786-0.
Test [15] deals with MDA-MB-435.
Test [16] concerns NCI-H226.
In test [17] the test system is COLO 205.
Test [18] concerns TK-10.
In test [19] the test system is HL-60.
Test [20] concerns SF-268.

Consider `CCOC(=O)c1cn(C)c(=S)n2c1nc1ccccc12`, for which the GI50 in test [1] was > 100 µM (inactive); in [2] it was > 100 µM (inactive); in [3] it was 91.8 µM (inactive); in test [4], 91.4 µM (inactive); in test [5], 48.2 µM (inactive); in test [6] it was > 100 µM (inactive). Further, the GI50 is 62.5 µM (inactive) in test [7]; > 100 µM (inactive) in test [8]; > 100 µM (inactive) in [9]; 30.8 µM (inactive) in [10]; 59.4 µM (inactive) in [11]; 56 µM (inactive) in [12]. Besides, the GI50 in [13] is > 100 µM (inactive); in test [14], 74.1 µM (inactive); in test [15] it was > 100 µM (inactive); in [16], 60.7 µM (inactive); in test [17], > 100 µM (inactive).

As to `Cc1nn(C(=O)c2ccccc2O)c2c1C(c1ccco1)SC(=N)N2` (stereo not given), the GI50 in [18] was > 10 µM (inactive); in test [1] it was 5.93 µM (inactive); in test [2], > 10 µM (inactive); in test [3], > 10 µM (inactive); in [4], 3.48 µM (inactive); in test [5] it was 2.95 µM (inactive). Moreover, the GI50 in [6] is 5.28 µM (inactive); in [19] it was 4.94 µM (inactive); in test [7], 4.9 µM (inactive); in [9], 5.24 µM (inactive); in test [10], 3.61 µM (inactive); in test [11] it was > 10 µM (inactive). In addition, the GI50 was 4.09 µM (inactive) in test [20]; 3.73 µM (inactive) in test [12]; 6.41 µM (inactive) in [13]; 7.01 µM (inactive) in [14]; 7.29 µM (inactive) in test [15]; 3.43 µM (inactive) in [16]. The GI50 in test [17] was 5.83 µM (inactive).

Regarding `CCOC(=O)c1[nH]cc(C)c1-c1ccn(-c2ccccc2)c1`, the GI50 in [18] was 27.5 µM (inactive); in [1] it was 89.7 µM (inactive); in test [2], > 100 µM (inactive); in test [3], 49.5 µM (inactive); in [4] it was > 100 µM (inactive); in [5], 19.2 µM (inactive). Also, the GI50 in [6] was 49.4 µM (inactive); in test [7], 15.6 µM (inactive); in test [8], 41.9 µM (inactive); in test [9], 80.4 µM (inactive); in test [10] it was 38.3 µM (inactive); in test [11] it was 56.4 µM (inactive). In addition, the GI50 in [20] was 44.7 µM (inactive); in [12], 41.8 µM (inactive); in [13], 96.2 µM (inactive); in test [14] it was 53.2 µM (inactive); in test [15], 41.9 µM (inactive); in test [16], 51.5 µM (inactive). Moreover, in test [17], the GI50 was 51.9 µM (inactive).

`Oc1ccc(Cl)cc1/C=N/c1cnc2ccccc2c1`: the GI50 in test [18] was > 100 µM (inactive); in test [1] it was 30.3 µM (inactive); in test [2] it was > 100 µM (inactive); in [3] it was 33.9 µM (inactive); in test [4], > 100 µM (inactive); in [5], 1.52 µM (inactive). For the same compound, the GI50 was 11.9 µM (inactive) in [6]; 4.56 µM (inactive) in [19]; 18.8 µM (inactive) in test [7]; 24.8 µM (inactive) in [9]; 27 µM (inactive) in test [10]; 36.7 µM (inactive) in test [11]. Further, the GI50 in [20] was 29.1 µM (inactive); in test [12] it was 8.17 µM (inactive); in test [13], > 68.9 µM (inactive); in [14], 37.9 µM (inactive); in test [15], 36.7 µM (inactive); in [16], 55.2 µM (inactive). Besides, the GI50 in test [17] is 53.8 µM (inactive).

In the case of `COc1cccc2c1OCC1Cc3ccccc3OC21` (stereo not given), the GI50 in test [18] was 21.1 µM (inactive); in test [1], 27.7 µM (inactive); in test [2], > 100 µM (inactive); in [3], 42.4 µM (inactive); in [4], 61.4 µM (inactive); in [5] it was 54.1 µM (inactive). Also, the GI50 in test [6] is 43.9 µM (inactive); in test [7] it was 59.3 µM (inactive); in test [8], 51.6 µM (inactive); in [9] it was 41.8 µM (inactive); in test [10], 44.9 µM (inactive); in test [11], 36.6 µM (inactive). Moreover, the GI50 in test [20] was 60.4 µM (inactive); in [12] it was 33.3 µM (inactive); in test [14], 35.6 µM (inactive); in test [15], 24.7 µM (inactive); in test [16] it was > 100 µM (inactive); in [17] it was 32.2 µM (inactive).

For the compound `O=C1CC(n2ccnc2)c2c(Cl)sc(Cl)c21` (stereo not given), the GI50 was 20.2 µM (inactive) in test [18]; 17.7 µM (inactive) in test [1]; 22.5 µM (inactive) in test [2]; 14.9 µM (inactive) in test [3]; 19.5 µM (inactive) in test [4]; 4.78 µM (inactive) in test [5]. For the same compound, the GI50 in [6] is 17.7 µM (inactive); in test [19], 51.8 µM (inactive); in test [7], 2.92 µM (inactive); in [9] it was 11 µM (inactive); in test [10] it was 13.1 µM (inactive); in [11], 27.4 µM (inactive). Moreover, the GI50 in test [20] was 21.9 µM (inactive); in [12] it was 6.3 µM (inactive); in test [13], 23.7 µM (inactive); in test [14], 6.79 µM (inactive); in [15] it was 17.1 µM (inactive); in test [16], 31.6 µM (inactive). Also, the GI50 in test [17] was 18.2 µM (inactive).

For the compound `CC(C)[C@H](NC(=O)[C@H](C(C)C)N(Cc1ccccc1)Cc1ccccc1)C(=O)N(C)[C@H](C(=O)N1CCC[C@H]1C(=O)N(C)[C@H](C)C(=O)NCc1ccc(Cl)cc1)C(C)C` (Bn2Val-V[NMeV]P[dNMeA]-{NH(4-Cl-benzyl)}), the GI50 in [18] is 5.87 µM (inactive); in test [1] it was 2.58 µM (inactive); in [2] it was 4.9 µM (inactive); in [3] it was 3.37 µM (inactive); in test [4] it was 5.94 µM (inactive); in test [5], 2.42 µM (inactive). Also, the GI50 is 2.86 µM (inactive) in test [6]; 1.77 µM (inactive) in test [19]; 3.85 µM (inactive) in [7]; 3.72 µM (inactive) in test [9]; 4.22 µM (inactive) in test [10]; 3.11 µM (inactive) in [11]. In addition, the GI50 in [20] was 2.98 µM (inactive); in test [12], 1.85 µM (inactive); in test [13], 4.98 µM (inactive); in test [14], 3.26 µM (inactive); in test [15], 4.03 µM (inactive); in test [16], 3.72 µM (inactive). For the same compound, in [17], the GI50 was 2.09 µM (inactive).

For the compound `O=C(CCN1CCCCC1)Nc1ccc2sc3ccccc3c(=O)c2n1`, the GI50 in [18] is 15.7 µM (inactive); in test [1] it was 12.3 µM (inactive); in [2], 18.2 µM (inactive); in test [3], > 10 µM (inactive); in test [4], 11.5 µM (inactive); in test [5], 7.91 µM (inactive). Moreover, the GI50 in test [6] is 14.6 µM (inactive); in test [19] it was 3.89 µM (inactive); in [7] it was 12.2 µM (inactive); in test [8] it was 14.4 µM (inactive); in test [9], 8.3 µM (inactive); in [10], > 10 µM (inactive). The GI50 in [11] is 18.1 µM (inactive); in test [20], 16.3 µM (inactive); in test [12] it was 10.3 µM (inactive); in test [13], 16.7 µM (inactive); in test [14] it was 11.8 µM (inactive); in test [15], 13.1 µM (inactive). Further, in test [17], the GI50 was 8.32 µM (inactive).

On to `Cc1cc(Cl)cc2c1NC(=O)C2(O)CC(=O)c1ccco1` (stereo not given), for which the GI50 in test [18] is > 100 µM (inactive); in test [1], > 85.1 µM (inactive); in [2] it was > 100 µM (inactive); in test [3], > 53.7 µM (inactive); in test [4], > 100 µM (inactive); in [5], 38.7 µM (inactive). Besides, the GI50 in [6] is > 90.6 µM (inactive); in [7], 0.506 µM (active); in [8], > 100 µM (inactive); in test [9] it was > 78.2 µM (inactive); in test [10] it was > 78.3 µM (inactive); in test [11], > 73.3 µM (inactive). In addition, the GI50 in [20] was > 100 µM (inactive); in [12], > 42 µM (inactive); in [13], > 70 µM (inactive); in test [14], 54.7 µM (inactive); in test [15], 2.92 µM (inactive); in test [16], > 100 µM (inactive). Besides, in [17], the GI50 is > 100 µM (inactive).

Take `CCN(CC)c1ccc2cc(C(=O)Nc3ccccc3OC)c(=N)oc2c1`: the GI50 in test [2] was 44.3 µM (inactive); in test [3], 20.4 µM (inactive); in test [4] it was 23.7 µM (inactive); in test [5], 2.89 µM (inactive); in test [6], 10.1 µM (inactive); in test [19] it was 7.5 µM (inactive). Further, the GI50 is 5.16 µM (inactive) in test [7]; 21.8 µM (inactive) in test [8]; 8.67 µM (inactive) in test [9]; 3.61 µM (inactive) in [10]; 33.9 µM (inactive) in test [11]; 8.15 µM (inactive) in test [20]. The GI50 in test [12] is 22.9 µM (inactive); in test [13], 32.9 µM (inactive); in test [14], 14.7 µM (inactive); in [15], 34.2 µM (inactive); in test [17], 24.8 µM (inactive).
